Source: patent US7745390B2, “Antimicrobial peptides” (priority 2005, dated 2010)
Square brackets hold non-standard residues; d marks the D form. Ends that are not written are not given here. Peptide text beside a SMILES is read from it.

Assays:
Salmonella = type: cell-based, S. typhimurium; conditions: pH 7.2
How it was run: (§1)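 First, peptides in 10 mM phosphate pH 7.2 with 0.03% LB meet bacteria (~5×10^6 CFU/ml). Second, incubation runs 3 h at 37 °C. Third, LB is added and plates grow overnight before OD600 reading.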

bacteria [1] = assay: Activity in DMEM and RPMI media (lysis of bacteria); type: cell-based; parameters: key to Active in DMEM: YES: Active in DMEM; a blank means no activity; conditions: for Active in DMEM: Table 2, tested in DMEM and RPMI; for antimicrobial / antibacterial activity: medium not stated
Protocol: (§2) The CFU assay is the “gold standard” for evaluating antibiotics. Briefly, bacteria are grown overnight in rich medium, such as LB, and then diluted and grown in log phase for 2-4 hours. Cultures are set up as above, with the initial culture media being 10 mM phosphate buffer/0.03% LB; DMEM or RPMI; or DMEM or RPMI plus 10% serum (fetal calf, human, or mouse). After various periods of time, but generally 3 hours or less, aliquots are removed, diluted in LB at various dilutions, and plated on LB agar plates. Plates are incubated overnight at 37° C. and counted on an automatic colony counter.
In the column “Active in DMEM”, a blank means no activity. MAP stands for multiple antigenic peptide, where a number of identical peptide chains are synthesized and joined to a common core (like a dendrimer).
The peptides listed in Table 2 were tested in DMEM and RPMI, media that approximate blood and tissue conditions in vivo and those that were active under these conditions are listed in the last column (active in DMEM). […] No peptides that were all L-isomer peptides lysed bacteria in DMEM supplemented with serum.
The hydrophobic moment is a measure of amphipathicity and indicates how well the hydrophobic residues fall on one side of the helix while the hydrophilic residues fall on the opposite side is shown in column 7. This was determined using the Membrane Explorer Program (http://blanco.biomol.uci.edu/mpex/). A high number indicates a high hydrophobic moment. Column 8 again (like Table 2) indicates which of these peptides is active in DMEM.

B. cereus = type: cell-based; conditions: pH 7.2
How it was run: as §1

E. coli DH5a = type: cell-based; conditions: DH5a, pH 7.2
How it was run: as §1

bacteria [2] = assay: Activity in serum containing media (10% FCS in DMEM or RPMI); type: cell-based; conditions: 10% FCS in DMEM or RPMI
Protocol: as §2
Tests were conducted in low salt concentrations so that active peptide candidates could be identified more readily. It is important for in vivo applications that the present antimicrobial peptides be active in physiological salt concentrations (150 mM) as well as in the presence of other tissue components, such as blood plasma (serum). Serum may contain proteases that destroy peptides; the use of D-amino acids can improve protease resistance. See G12.21. […] Also active were G11.6, G11.26, G11.29, G11.30, G11.34, G11.35, G12.11, G12.19, G12.20 and G12.21. […]

Row | Molecule | IC50 (Salmonella) | Salmonella MIC (Salmonella) | Active in DMEM (bacteria [1]) | B. cereus MIC (B. cereus) | IC50 (B. cereus) | E. coli DH5a MIC (E. coli DH5a) | IC50 (E. coli DH5a) | antimicrobial / antibacterial activity (bacteria [1]) | active in serum containing media (bacteria [2])
1 | CSCC[C@@H]1NC(=O)[C@H](Cc2ccccc2)NC(=O)[C@H](CCCCN)NC(=O)[C@H](CCCCN)NC(=O)[C@H](CO)NC(=O)[C@H](C(C)C)NC(=O)[C@H](CCCCN)NC(=O)[C@H](CCCCN)NC(=O)[C@H](CC(N)=O)NC(=O)[C@H](CCCCN)NC(=O)[C@H](CCCCN)NC(=O)[C@H](CCSC)NC(=O)[C@H](Cc2ccccc2)NC(=O)[C@H](CCCCN)NC(=O)[C@H](CCCCN)NC(=O)[C@H](CO)NC(=O)[C@H](C(C)C)NC(=O)[C@H](CCCCN)NC(=O)[C@H](CCCCN)NC(=O)[C@H](CO)NC(=O)CNC(=O)[C@H](CCCCN)NC(=O)[C@H](CCCCN)NC1=O [G11.32 CYC] | 210 nM | 0.35 µM | YES | 0.35 µM | 210 nM | 0.35 µM | 200 nM | – | –
2 | CC(C)C[C@@H](NC(=O)[C@@H](CCCNC(=N)N)NC(=O)[C@@H](CCCNC(=N)N)NC(=O)[C@H]1CCCN1C(=O)[C@@H](CCCNC(=N)N)NC(=O)[C@@H](CCCNC(=N)N)NC(=O)[C@@H](CO)NC(=O)[C@@H](CCCNC(=N)N)NC(=O)[C@@H](Cc1ccc(O)cc1)NC(=O)[C@@H](CCCNC(=N)N)NC(=O)[C@@H](CCCNC(=N)N)NC(=O)[C@H]1CCCN1C(=O)[C@H]1CCCN1C(=O)[C@H]1CCCN1C(=O)[C@@H](CCCNC(=N)N)NC(=O)[C@@H](CO)NC(=O)[C@H](NC(=O)[C@@H](CCCNC(=N)N)NC(=O)[C@H](N)CCCNC(=N)N)C(C)C)C(=O)N[C@@H](C(=O)O)C(C)C [Peptide G12.25, rrvsrppprryrsrrprrlv] (H-[dR][dR][dV][dS][dR][dP][dP][dP][dR][dR][dY][dR][dS][dR][dR][dP][dR][dR][dL][dV]-OH; N-terminus and C-terminus assumed) | 100 nM | 1.25 µM | YES | <.078 µM | < 78 nM | 0.15 µM | < 78 nM | has lost much of its antibacterial activity | –
3 | CSCC[C@@H](NC(=O)[C@H]1CCCN1C(=O)[C@H]1CCCN1C(=O)[C@@H](CCCNC(=N)N)NC(=O)[C@@H](CO)NC(=O)[C@H](NC(=O)[C@@H](CCCNC(=N)N)NC(=O)[C@H](N)CCCNC(=N)N)C(C)C)C(=O)N[C@H](CCCNC(=N)N)C(=O)N[C@H](CCCNC(=N)N)C(=O)N[C@H](Cc1ccc(O)cc1)C(=O)N[C@H](CCCNC(=N)N)C(=O)N[C@H](CO)C(=O)N[C@H](CCCNC(=N)N)C(=O)N[C@H](CCCNC(=N)N)C(=O)N1CCC[C@@H]1C(=O)N[C@H](CCCNC(=N)N)C(=O)N[C@H](CCCNC(=N)N)C(=O)N[C@H](CC(C)C)C(=O)N[C@@H](C(=O)O)C(C)C [Peptide G12.26, rrvsrppmrryrsrrprrlv] (H-[dR][dR][dV][dS][dR][dP][dP][dM][dR][dR][dY][dR][dS][dR][dR][dP][dR][dR][dL][dV]-OH; N-terminus and C-terminus assumed) | 100 nM | 0.3 µM | YES | 0.35 µM | < 78 nM | <.078 µM | < 78 nM | loses some antibacterial activity compared to G12.21 | –
4 | CSCC[C@@H](NC(=O)[C@H]1CCCN1C(=O)[C@@H](CCCCN)NC(=O)[C@@H](CCCCN)NC(=O)[C@@H](CO)NC(=O)[C@H](NC(=O)[C@@H](CCCCN)NC(=O)[C@H](N)CCCCN)C(C)C)C(=O)N[C@H](CCCCN)C(=O)N[C@H](CCCCN)C(=O)N[C@H](Cc1ccc(O)cc1)C(=O)N[C@H](CCCCN)C(=O)N[C@H](CO)C(=O)N[C@H](CCCCN)C(=O)N[C@H](CCCCN)C(=O)N1CCC[C@@H]1C(=O)N[C@H](CCCCN)C(=O)N[C@H](CCCCN)C(=O)N[C@H](CC(C)C)C(=O)N[C@@H](C(=O)O)C(C)C [Peptide G12.28, kkvskkpmkkykskkpkklv] (H-[dK][dK][dV][dS][dK][dK][dP][dM][dK][dK][dY][dK][dS][dK][dK][dP][dK][dK][dL][dV]-OH; N-terminus and C-terminus assumed) | – | – | – | – | – | – | – | inactive peptide | –
5 | GRSRWRRVSRRFMRR [Peptide G14.11, GRSRWRRVSRRFMRR] | 440 nM | 0.65 µM | YES | 0.7 µM | 450 nM | 0.7 µM | 450 nM | – | –
6 | QRSVSRAATRVSRTGRSRWRRVSRRFMRR [Peptide G8.9] | 220 nM | 0.35 µM | YES | 0.7 µM | 450 nM | 0.7 µM | 450 nM | – | –
7 | QRSVSRPPTRVSRTGRSRWRDVSRRFMRR [Peptide G8.12] | 210 nM | 0.35 µM | YES | 0.35 µM | 210 nM | 0.35 µM | 210 nM | – | –
8 | RRVSRRFMRRD-NH2 [G11.30 CYC, RRVSRRFMRRD] | 7700 nM | >10 µM | – | >10 µM | 7550 nM | 5.7 µM | 3500 nM | – | active
9 | RRVSRRFMRRSRWARKGSGQMVQQSSQQFQ [Peptide G11.41] | 3250 nM | 5.6 µM | – | 1.38 µM | 890 nM | 3.5 µM | 960 nM | – | –
10 | RRVSRRFMRRYQSRVIQGLV [Peptide G12.6] | 900 nM | 1.45 µM | – | 0.7 µM | 420 nM | 1.45 µM | 890 nM | – | –
11 | RRVSRRFMRRYQSRVPQGLV [Peptide G12.10] | 850 nM | 1.4 µM | – | 1.4 µM | 890 nM | 0.7 µM | 450 nM | – | –
12 | RRVSRRFMRRYRSRRIRRLV [Peptide G12.8] | 410 nM | 0.65 µM | – | 0.71 µM | 450 nM | 0.7 µM | 450 nM | – | –
13 | RRVSRRFMRRYRSRVIRGLV [Peptide G12.7] | 220 nM | 0.35 µM | – | 0.35 µM | 210 nM | 0.71 µM | 250 nM | – | –
14 | RRVVRRFMRR [Peptide G11.16, RRVVRRFMRR] | 3450 nM | 5.6 µM | – | >10 µM | 7700 nM | 1.4 µM | 800 nM | – | –
15 | RRVVRRLLRR [Peptide G11.19, RRVVRRLLRR] | 7690 nM | >10 µM | – | 6.65 µM | 3410 nM | >10 µM | 7450 nM | – | –
16 | SDVAKKFMKKQSKVIKKLV [Peptide G12.23, SDVAKKFMKKQSKVIKKLV] | > 10000 nM | >10 µM | – | >10 µM | 7700 nM | 3 µM | 1000 nM | – | –
17 | SDVARRFMRRQSRVIRRLV [Peptide G12.22, SDVARRFMRRQSRVIRRLV] | 890 nM | 1.39 µM | – | 5.7 µM | 3500 nM | 1.38 µM | 870 nM | – | –
18 | VHKRRVSRRFMRRLGH [Peptide G11.42, VHKRRVSRRFMRRLGH] | 1350 nM | 2.8 µM | – | 0.4 µM | 110 nM | 0.35 µM | 210 nM | – | –
19 | WRDVSRNFMRRGRSRGWRDVSRNFMRR [Peptide G11.36] | 890 nM | 1.38 µM | – | 0.7 µM | 410 nM | 0.7 µM | 450 nM | – | –
